The target of series [1] is Dipeptidyl peptidase 8 (Homo sapiens, UniProt Q6V1X1). In words: Inhibition of DPP8.
In series [2] the target is Dipeptidyl peptidase 2 (Homo sapiens, UniProt Q9UHL4). Put plainly: Inhibition of DPP2.
Series [3] in a line: Cmax in rat at 5 mg/kg, po. It is filed as ADME, organism-based. On the set-up: dose 5 mg/kg, route oral. Conditions: in vivo.
The nature of series [4]: Plasma clearance in rat at 5 mg/kg, iv or 5 mg/kg, po. Type of series: ADME, organism-based.
Series [5] can be described thus: Half life in monkey at 5 mg/kg, po. Type of series: ADME, organism-based, Macaca mulatta. On the set-up: dose 5 mg/kg, route oral. Conditions: rhesus monkey, in vivo.
Series [6] has as its system Rattus norvegicus. In words: Inhibition of basal plasma DPP4 activity in Sprague-Dawley rat at 0.1 mg/kg after 24 hrs. Conditions: read-out: Inhibition.
Series [7] in a line: Plasma clearance in monkey at 5 mg/kg, iv or 5 mg/kg, po. Type of series: ADME, organism-based, Macaca mulatta. Conditions: rhesus monkey.
The nature of series [8]: Bioavailability in dog at 5 mg/kg, po. It is filed as ADME, organism-based, Canis lupus familiaris. Conditions: in vivo.
A short description of series [9]: Plasma clearance in dog at 5 mg/kg, iv or 5 mg/kg, po. It is filed as ADME, organism-based, Canis lupus familiaris.
Series [10] is described as follows: Volume of distribution at steady state in monkey at 5 mg/kg, iv or 5 mg/kg, po. It is filed as ADME, organism-based, Macaca mulatta. Conditions: rhesus monkey, in vivo, read-out: Vdss.
Series [11] in a line: Cmax in monkey at 5 mg/kg, po. On the set-up: dose 5 mg/kg, route oral. Conditions: rhesus monkey, in vivo. It is filed as ADME, organism-based, Macaca mulatta.
Series [12] relates to Rattus norvegicus. In words: Inhibition of basal plasma DPP4 activity in Sprague-Dawley rat at 0.03 mg/kg after 24 hrs. The settings on record: read-out: Inhibition.
The nature of series [13]: Bioavailability in monkey at 5 mg/kg, po. Conditions: rhesus monkey, in vivo. Type of series: ADME, organism-based, Macaca mulatta.
Series [14] in a line: Volume of distribution at steady state in dog at 5 mg/kg, iv or 5 mg/kg, po. Type of series: ADME, organism-based, Canis lupus familiaris. The settings on record: in vivo, read-out: Vdss.
The subject of series [15] is Rattus norvegicus. In words: Inhibition of basal plasma DPP4 activity in Sprague-Dawley rat at 0.03 mg/kg after 1 hr. The settings on record: read-out: Inhibition.
Series [16] concerns Rattus norvegicus. In words: Inhibition of basal plasma DPP4 activity in Sprague-Dawley rat at 10 mg/kg after 1 hr. Conditions: read-out: Inhibition.
In series [17] the test system is Rattus norvegicus. Put plainly: Inhibition of basal plasma DPP4 activity in Sprague-Dawley rat at 10 mg/kg after 24 hrs. Conditions: read-out: Inhibition.
Series [18] is described as follows: Bioavailability in rat at 5 mg/kg, po. It is filed as ADME, organism-based. The settings on record: in vivo.
Series [19] can be described thus: Half life in rat at 5 mg/kg, po. Type of series: ADME, organism-based. On the set-up: dose 5 mg/kg, route oral. Conditions: in vivo.
Series [20] concerns Rattus norvegicus. Put plainly: Inhibition of basal plasma DPP4 activity in Sprague-Dawley rat at 0.1 mg/kg after 1 hr. The settings on record: read-out: Inhibition.
The nature of series [21]: Half life in dog at 5 mg/kg, po. It is filed as ADME, organism-based, Canis lupus familiaris. On the set-up: dose 5 mg/kg, route oral. Conditions: in vivo.
For series [22], the system named is Rattus norvegicus. Put plainly: Inhibition of basal plasma DPP4 activity in Sprague-Dawley rat at 1 mg/kg after 1 hr. Conditions: read-out: Inhibition.
Series [23] relates to Rattus norvegicus. Put plainly: Inhibition of basal plasma DPP4 activity in Sprague-Dawley rat at 1 mg/kg after 24 hrs. Conditions: read-out: Inhibition.
The nature of series [24]: Volume of distribution at steady state in rat at 5 mg/kg, iv or 5 mg/kg, po. It is filed as ADME, organism-based. The settings on record: in vivo, read-out: Vdss.

Chain of Dipeptidyl peptidase 8 (Q6V1X1 whole entry): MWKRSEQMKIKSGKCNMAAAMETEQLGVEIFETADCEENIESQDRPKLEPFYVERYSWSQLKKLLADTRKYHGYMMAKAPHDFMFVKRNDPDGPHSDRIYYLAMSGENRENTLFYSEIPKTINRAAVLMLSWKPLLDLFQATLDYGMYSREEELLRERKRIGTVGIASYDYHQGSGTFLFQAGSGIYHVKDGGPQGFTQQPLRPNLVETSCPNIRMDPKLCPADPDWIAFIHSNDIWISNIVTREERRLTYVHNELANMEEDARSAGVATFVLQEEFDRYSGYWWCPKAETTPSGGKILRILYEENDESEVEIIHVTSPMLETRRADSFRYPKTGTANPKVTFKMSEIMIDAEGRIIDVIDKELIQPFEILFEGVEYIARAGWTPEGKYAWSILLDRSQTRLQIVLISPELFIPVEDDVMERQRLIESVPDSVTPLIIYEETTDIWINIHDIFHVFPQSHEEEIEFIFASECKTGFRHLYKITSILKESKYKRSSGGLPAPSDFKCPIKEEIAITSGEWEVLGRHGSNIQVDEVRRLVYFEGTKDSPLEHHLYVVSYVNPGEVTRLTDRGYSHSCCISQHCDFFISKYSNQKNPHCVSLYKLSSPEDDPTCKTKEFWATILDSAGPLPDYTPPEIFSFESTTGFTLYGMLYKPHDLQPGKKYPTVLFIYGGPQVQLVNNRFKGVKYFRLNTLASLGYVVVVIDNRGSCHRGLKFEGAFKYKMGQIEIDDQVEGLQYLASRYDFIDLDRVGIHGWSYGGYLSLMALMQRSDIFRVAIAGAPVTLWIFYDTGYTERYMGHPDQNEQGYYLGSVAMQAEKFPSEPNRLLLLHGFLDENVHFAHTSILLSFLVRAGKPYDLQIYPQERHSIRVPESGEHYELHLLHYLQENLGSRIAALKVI

What is called IC50 is the point on the concentration scale where inhibition reaches its midpoint. Turning to `CC(C)(C)NCC(=O)N1CCC[C@H]1C(=O)c1noc(C2(C)CCCCC2)n1`, the IC50 in series [1] and in [2] was < 0.39 µM each time.

In the case of `CC(C)(C)NCC(=O)N1CCC[C@H]1C(=O)c1nnc(C2(C)CCCCC2)o1`, the IC50 in series [1] is < 0.39 µM; in series [2] it was 8.66 µM.

As for `CC(C)(C)NCC(=O)N1CCC[C@H]1C(=O)c1noc(-c2ccc(F)cc2)n1`, the IC50 in series [1] and in [2] was < 0.39 µM throughout.

For `Cc1cc(C)c(-c2nnc(C(=O)[C@@H]3CCCN3C(=O)CNC(C)(C)C)o2)c(C)c1`, the IC50 in series [1] and in [2] was < 0.39 µM each time.

As usually defined, the Cmax is the peak of the concentration-time curve. Usually half-life stands for how long it takes for the measured level to halve. The bioavailability is dose-corrected exposure relative to a reference, in per cent. On to `CC(C)(CO)NCC(=O)N1C[C@@H](F)C[C@H]1C(=O)c1nnc(C(C)(C)C)o1`, for which the Cmax in series [3] came to 30 ng/mL; in [11], 210 ng/mL. The clearance was 241 mL/min/kg in series [4], 18 mL/min/kg in [7] and 71 mL/min/kg in series [9]. Moreover, the half-life in series [5] turned out to be 4.63 h; in [19] it was 4.15 h; in [21] it was 1.47 h. Besides, the inhibition in vivo at 0.1 mg/kg in [6] and in series [20] was 82% throughout. In addition, the bioavailability in series [8] was determined as 87%; in series [13] it was 35%; in series [18] it was 39%. The Vd came to 2.42 L/kg in series [10], 4.87 L/kg in [14] and 14 L/kg in series [24]. Also, the inhibition in vivo at 0.03 mg/kg in series [12] is 76%; in [15], 66%. The figures for the inhibition in vivo at 10 mg/kg in series [16] and in series [17] were 68% and 74%, respectively. Also, the IC50 in series [2] stood at 146 µM. Besides, the figures for the inhibition in vivo at 1 mg/kg in [22] and in series [23] were 46% and 50%, respectively.

Consider `CCC(C)(C)c1nnc(C(=O)[C@@H]2C[C@H](F)CN2C(=O)CNC(C)(C)C)o1`, for which the IC50 in series [1] is < 0.39 µM; in series [2], 97.2 µM.

For the molecule `CC(C)(C)NCC(=O)N1C[C@@H](F)C[C@H]1C(=O)c1nnc(C2CCCCC2)o1`, the IC50 in series [1] and in [2] was < 0.39 µM in each case.

`CC(C)(C)NCC(=O)N1CCC[C@H]1C(=O)c1nnc(C(C)(C)C)o1`: in series [2], the IC50 is > 10 µM.

The values above are taken from ChEMBL document CHEMBL1149548, “Synthesis, SAR, and X-ray structure of novel potent DPPIV inhibitors: oxadiazolyl ketones” (Bioorg Med Chem Lett, 2007).
